Common to all, as to experiment: NCI tumour cell line growth inhibition, 48 h
The subject of test [1] is SK-MEL-28 melanoma.
Test [2] deals with MCF7 breast.
In test [3] the test system is HCT-15 colon.
The test system of test [4] is MDA-MB-435.
The subject of test [5] is SF-539 CNS.
The subject of test [6] is PC-3 prostate.
Test [7] has as its system CCRF-CEM leukemia.
The test system of test [8] is HT29 colon.
Test [9] deals with BT-549 breast.
Test [10] relates to T-47D breast.

“And” between values parts separate entries of the source, which are not always exact repeats. Equal entries are not always repeated.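 48-hour exposure; five concentrations; linearly interpolated endpoints. GI50: concentration for 50% inhibition of growth. TGI denotes the concentration required for complete inhibition of growth.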

For the molecule `COc1ccc2[nH]c3c(C)c4cc[n+](C)cc4c(C)c3c2c1`, the GI50 in test [1] was 3070 nM; in test [2], 1510 nM and 885 nM; in test [4], 13400 nM and 5860 nM; in test [7], 706 nM and 1920 nM; in test [8], 2520 nM and 1970 nM; in test [9] it was 733 nM. Besides, the GI50 in [10] is 880 nM and 257 nM and 1030 nM. Also, the TGI is 10.8 µM [middle of 4 runs] in [1]; > 100000 nM and 110000 nM and > 250000 nM in test [3]; greater than 88300 nM in [4]; 1650 nM and 1460 nM and 1320 nM in test [5]; 99300 nM and > 250000 nM in test [6]; 60.2 µM [middle of 4 runs] in [8]. Further, the TGI in test [9] is 5180 nM and 4970 nM and 1790 nM; in [10], 12600 nM and 3630 nM and 11200 nM.

Regarding `FC(F)(F)c1[nH]ncc1-c1nc2c(N3CCCCC3)cc3[nH]ncc3c2c2c1CCCC2`, the GI50 is 617 nM in [1]; 514 nM in test [2]; 1070 nM in [3]; 741 nM in test [4]; 567 nM in test [5]; 910 nM in [6]. Moreover, the GI50 was 1140 nM in [7], 1300 nM in test [8], 643 nM in test [9] and 756 nM in [10]. The TGI in test [1] is 1780 nM; in test [2] it was greater than 15400 nM; in test [3] it was greater than 16500 nM; in test [4], 2190 nM; in test [5], 1220 nM; in test [6] it was greater than 13800 nM. Moreover, the TGI in [7] is greater than 50000 nM; in test [8], greater than 50000 nM; in [9] it was 1370 nM; in test [10], greater than 13700 nM.

With `Nc1c(S(=O)(=O)O)cc(Nc2cccc(S(N)(=O)=O)c2)c2c1C(=O)c1ccccc1C2=O`, the TGI in test [1] was greater than 100000 nM; in test [2], greater than 100000 nM; in test [3] it was greater than 100000 nM; in [4], 32600 nM; in test [5], greater than 100000 nM; in test [6], greater than 100000 nM. Besides, the TGI in test [7], in [8], in test [9] and in [10] was greater than 100000 nM each time.

For `O=C1OCC2=C1C(c1cccc(C(F)(F)F)c1)c1cc3c(cc1N2CCO)OCO3` (stereo not given), the GI50 is 4540 nM in test [1]; 415 nM in test [2]; 511 nM in [3]; 161 nM in [4]; 884 nM in test [5]; 926 nM in test [6]. The values for the GI50 in test [7], in [8] and in test [9] were 955 nM, 1310 nM and 919 nM, respectively. Besides, the TGI in test [1] is greater than 50000 nM; in test [2], greater than 50000 nM; in [3], greater than 50000 nM; in test [4] it was 641 nM; in [5] it was 2730 nM; in [6], greater than 50000 nM. Also, the TGI in test [7] is greater than 50000 nM; in test [8] it was 8400 nM; in test [9], 27300 nM.

As to `C=CC[N+]1(CCO)CCN=C1CCCCCCCCCCCCC` (stereo not given), the GI50 in test [1] was 1750 nM; in test [2], 1500 nM; in [4], 1720 nM; in test [6], 1370 nM; in [8], 1300 nM; in test [9], 1760 nM. Further, the GI50 in test [10] was 1650 nM. Besides, the TGI was 3120 nM in test [1]; 2820 nM in [2]; 3090 nM in test [4]; 2850 nM in [6]; 2560 nM in [8]; 3240 nM in [9]. In test [10], this molecule returned a TGI of 3470 nM.

In the case of `Nc1ccc(-c2ccc(Nc3cc(S(=O)(=O)O)c(N)c4c3C(=O)c3ccccc3C4=O)cc2)c(S(=O)(=O)O)c1`, the TGI in test [1], in [2], in [3], in test [4], in test [5] and in [6] was greater than 100000 nM in each case. The TGI in [7], in test [8], in test [9] and in [10] was greater than 100000 nM each time.

For the molecule `CN1C(=O)N(C)C2C1NN=c1s/c(=C\c3c[nH]c4ccccc34)c(=O)n12` (stereo not given), the GI50 was 34500 nM in test [1]; 33.8 nM in test [2]; 36.5 nM in [3]; 16.2 nM in [4]; 30.1 nM in [5]; 41.3 nM in [6]. Also, the GI50 in test [7] was 33.7 nM; in [8] it was 37.7 nM; in test [9] it was 55.7 nM. Besides, the TGI in test [1] is greater than 100000 nM; in [2], greater than 100000 nM; in test [3], greater than 100000 nM; in test [4] it was 48.2 nM; in test [5], 55900 nM; in test [6], greater than 100000 nM. Further, the TGI in test [7], in [8] and in test [9] was greater than 100000 nM in each case.

Regarding `Cc1coc2c1CC1OC1(C)CCC1OC1(C)C2` (stereo not given), the TGI in [1], in test [2], in [3], in test [4], in test [5] and in test [6] was greater than 100000 nM in each case. Besides, the TGI in test [7], in [9] and in test [10] was greater than 100000 nM throughout.

Consider `COc1cc(CNc2nc3cc(N)cc(N)c3nc2-c2ccccc2)cc(OC)c1OC`, for which the GI50 in [1] was 8530 nM; in test [2], 1550 nM; in test [3] it was 3270 nM; in test [4] it was 227 nM; in test [5] it was 1340 nM; in test [6], 2180 nM. In addition, the GI50 in [8] was 8630 nM; in [9], 3840 nM. The TGI in test [1] was 17600 nM; in test [2] it was greater than 50000 nM; in test [3], 13900 nM; in [4] it was 907 nM; in test [5], 8010 nM; in test [6], greater than 50000 nM. The TGI in [8] was 19500 nM; in [9] it was 11200 nM.

The values above are taken from PubChem BioAssay (NCI).
